Patent US6413975B1, “Purine derivatives having phosphodiesterase iv inhibition activity” (Euro-Celtique, S.A., priority 1999, dated 2002)
Where a name gives a salt, the structure may show the parent alone. Read-outs that look alike come from different tables or passages of the source.

Test system: Type IV PDE
Experiment: PDE IV inhibition: hydrolysis of [3H]-cyclic AMP by isolated Type IV PDE
Assay type: biochemical, bovine
Experimental: The Type IV PDE is isolated from bovine tracheal smooth muscle using a procedure similar to that previously described by Silver, P. J., Hamel, L. T., Perrone, M. H. Bentley, R. G. Bushover, C. R., Evans, D. B.: Eur. J. Pharmacol. 150:85,1988.(1). Briefly, smooth muscle from bovine trachea is minced and homogenized using a polytron in 10 volumes of an extraction buffer containinhg 10 mM Tris-acetate (pH 7.5), 2 mM magnesium chloride, 1 mM dithiothreitol and 2,000 units/ml of aprotinin. This and all subsequent procedures are performed at 0-4° C. The homogenate is sonicated and then centrifiged at 48,000×g for 30 minutes. The resulting supernatant is applied to a DEAE Trisacryl M column previously equilibrated with sodium acetate and dithiothreitol. After applications of the sample, the column is washed with sodium acetate/dithiothreitol, after which the different forms of PDE are eluted from the column using a linear Tris-HCl/NaCl gradient. Fractions containing Type IV PDE are collected, dialyzed and concentrated to 14% of the original volume. The concentrated fractions are diluted to 50% with ethylene glycol and stored at -20° C.
Enzyme activity is assessed by measuring the hydrolysis of [^3H]-cyclic AMP, as described by Thompson, W. J., Teraski, W. L., Epstein, P. N., Strada, S. J.: Adv. Cyclic Nucleotide Res. 10:69, 1979. The cyclic AMP concentration used in this assay is 0.2 μM, which approximates the Km value. Protein concentration is adjusted to ensure that no more than 15% of the available substrate is hydrolyzed during the incubation period.
All test compounds are dissolved in dimethyl sulfoxide (final concentration of 2.5%). This concentration of dimethyl sulfoxide inhibits enzyme activity by approximately 10%.

[1] = thioisoguanines, Table 2, cyclic AMP 0.2 μM, read-out: Calc IC50 PDE IV
[2] = adenines, Table 4, cyclic AMP 0.2 μM, read-out: calc PDE IV IC50
[3] = dithioxanthines, Table 5, read-out: IC50 PDE IV
[4] = adenines, Table 7, read-out: calc PDE IV IC50

Row | Compound | IC50 [4] [µM] | further results
1 | CCCn1c(=S)nc(NC2CCCC2)c2[nH]c(C3CC3)nc21 [6-cyclopentylamino-8-cyclopropyl-3,7-dihydro-3-propyl-2-thio-2H-purin-2-one hydrochloride] | – | IC50 (read-out: PDE IV I50): 7.41 µM
2 | CCCn1c(=S)nc(NC2CCCC2)c2[nH]c(C(C)C)nc21 [6-cyclopentylamino-3,7-dihydro-8-isopropyl-3-propyl-2-thio-2H-purin-2-one] | – | IC50 [1]: 45.1 µM
3 | CC(C)c1nc2c([nH]1)c(=S)[nH]c(=S)n2Cc1ccccc1 [3-benzyl-3,7-dihydro-8-(1-methylethyl)-2,6-dithio-1H-purine-2,6-dione] | – | IC50 (read-out: PDE IV I50): 3.4 µM
4 | CCn1cnc(NCc2ccccc2)c2nc(C(C)C)nc1-2 [3-ethyl-8-isopropyl-6-benzylamino-3H-purine hydrochloride] | – | IC50 [2]: 28.9 µM
5 | S=c1[nH]c(=S)n(Cc2ccccc2)c2nc[nH]c12 [3-benzyl-3,7-dihydro-2,6-dithio-1H-purine-2,6-dione] | – | IC50 [3]: 38.5 µM
6 | CC(C)c1nc2c([nH]1)c(NC1CCCC1)nc(=S)n2Cc1ccc(Cl)cc1 [3-(4-chlorobenzyl)-6-cyclopentylamino-3,7-dihydro-8-isopropyl-2-thio-2H-purin-2-one] | – | IC50 [1]: 114 µM
7 | CCNc1ncn(Cc2ccc(OC)c(OCCN(C)C)c2)c2nc(C(C)C)nc1-2 [6-Ethylamino-3-[3-(2,2-dimethylaminoethoxy-4-methoxy)]-8-isopropyl-3H-purine] | 8.95 | –
8 | COc1ccc(Cn2cnc(N)c3nc(C(C)(C)O)nc2-3)cc1OCCCCO [6-amino-3-[3-(4-hydroxybutoxy-4-methoxy)benzyl]-8-(1-hydroxy-1-methylethyl)-3H-purine hydrochloride] | 17.1 | –
9 | CCn1c(=S)nc(NC2CCCC2)c2[nH]c(C(C)C)nc21 [3-ethyl-6-cyclopentylamino-3,7-dihydro-8-isopropyl-2-thio-2H-purin-2-one] | – | IC50 [1]: 9.4 µM
10 | CCNc1ncn(Cc2ccc(OC)c(O)c2)c2nc(C(C)(C)O)nc1-2 [6-ethylamino-3-[(3-hydroxy-4-methoxy)benzyl]-8-[(1-hydroxy-1-methyl)ethyl]- -3H-purine] | 6.5 | –
11 | CCNc1ncn(Cc2ccc(OC)c(OCC3CCN(C)CC3)c2)c2nc(C(C)C)nc1-2 [6-Ethylamino-3-[3-(1-methylpiperidin-4-yl-methoxy)-4-methoxy-benzy]-8-isopropyl-3H-purine] | 6.6 | –
12 | CC(C)c1nc2c(NC3CC3)ncn(Cc3ccc(Cl)cc3)c-2n1 [3-(4-chlorobenzyl)-6-cyclopropylamino-8-isopropyl-3H-purine] | 1.69 | –
13 | CCCCCCn1cnc(NC)c2ncnc1-2 [3-hexyl-6-methylamino-3H-purine hydrochloride] | – | IC50 [2]: 34.1 µM
14 | CCCCn1cnc(NCC)c2ncnc1-2 [3-butyl-6-ethylamino-3H-purine hydrochloride] | – | IC50 [2]: 66.4 µM
15 | CC(C)c1nc2c([nH]1)c(=S)[nH]c(=S)n2Cc1ccccc1Cl [3-(2-chlorobenzyl)-3,7-dihydro-8-isopropyl-2,6-dithio-1H-purine-2,6-dione] | – | IC50 [3]: 7.74 µM
16 | CCNc1ncn(Cc2ccc(OC)c(OC3CCCC3)c2)c2ncnc1-2 [3-(3-Cyclopentyloxy-4-methoxybenzyl)-6-ethylamino-3H-purine Hydrochloride] | – | IC50 (read-out: PDE IV I50): 2.15 µM
17 | CCn1cnc(NCc2ccccc2)c2nc(C3CCCC3)nc1-2 [3-ethyl-8-cyclopentyl-6-benzylamino-3H-purine hydrochloride] | – | IC50 [2]: 62.4 µM
18 | COc1ccc(Cn2cnc(N)c3nc(C(C)C)nc2-3)cc1OC [6-amino-3-(3,4-dimethoxybenzyl)-8-isopropyl-3H-purine] | 0.92 | –
19 | CCCNc1nc(=S)n(CC2CC2)c2nc(C(C)C)[nH]c12 [3-(cyclopropylmethyl)-3,7-dihydro-8-(1-methyl-ethyl)-6-propylamino-2-thio-2H-purin-2-one hydrochloride] | – | IC50 [1]: 23.9 µM
20 | CCNc1ncn(Cc2ccc(OC)c(OC3CCCCC3)c2)c2nc(C(C)C)nc1-2 [3-[3-Cyclohexanyl-4-oxy-4-methoxy-benzyl]-6-ethylamino-8-isopropyl-3H-purine] | 8.28 | –
21 | CC(C)c1nc2c([nH]1)c(=S)[nH]c(=S)n2Cc1ccc(Cl)cc1 [3-(4-chlorobenzyl)-8-isopropyl)-3,7 dihydro-2,6-dithio-3,7-purine-2,6-dione] | – | IC50 [3]: 2.4 µM; IC50 (read-out: PDE IV I50): 2.27 µM
22 | CCNc1ncn(Cc2ccc(OC)c(OC3CCC(O)C3)c2)c2nc(C(C)(C)O)nc1-2 (stereo not shown) [6-Ethylamino-3-[3-(3-hydroxycyclopentyloxy)-4-methoxybenzyl)]-8-(1-hydroxy-1-methylethyl)-3H-purine] | 2.6 | –
23 | COc1ccc(Cn2cnc(N)c3nc(C(C)C)nc2-3)cc1O [6-amino-3-(3-hydroxy-4-methoxy)-benzyl)-8-isopropyl-3H-purine] | 15.1 | –

Row | Compound | IC50 [4] [µM] | further results
24 | CCNc1ncn(CC2CCCCC2)c2ncnc1-2 [3-cyclohexylmethyl-6-ethylamino-3H-purine hydrochloride] | – | IC50 [2]: 33 µM
25 | CCNc1ncn(Cc2ccc3c(c2)OCO3)c2nc(C(C)C)nc1-2 [6-ethylamino-3-(3-,4-methylenedioxybenzyl)-8-isopropyl-3H-purine] | 0.44 | –
26 | CCNc1ncn(Cc2ccc(F)cc2)c2nc(C(C)C)nc1-2 [6-ethylamino-3-(4-fluorobenzyl)-8-isopropyl-3H-purine] | 1.85 | –
27 | COc1ccc(Cn2cnc(N)c3nc(C(C)C)nc2-3)cc1OCc1ccccc1 [6-amino-3-((3-benzyloxy-4-methoxy)-bezyl)-8-isopropyl-3H-purine] | 6.4 | –
28 | CC(C)c1nc2c(NC3(O)CCCC3)ncn(Cc3ccc(Cl)cc3)c-2n1 [3-(4-chlorobenzyl)-6-((1-hydroxy)cyclopentylamino)-8-isopropyl-3H-purine] | 4.48 | –
29 | CCn1c(=S)nc(NC2CCCC2)c2[nH]c(C3CC3)nc21 [3-ethyl-6-cyclopentylamino-8-cyclopropyl-3,7-dihydro-2-thio-2H-purin-2-one] | – | IC50 [1]: 0.19 µM
30 | CCNc1ncn(Cc2ccc(OC)c(OCCCCO)c2)c2nc(C(C)C)nc1-2 [6-ethylamino-8-isopropyl-3-[(4-methoxy-3-(4-hydroxybutoxy))benzyl]-3H-purine] | 1.75 | –
31 | COc1ccc(Cn2c(=S)[nH]c(=S)c3[nH]cnc32)cc1OC1CCCC1 [3-(3-cyclopentyloxy-4-methoxybenzyl)-3,7-dihydro-2,6-dithio-1H-purine-2,6-dione] | – | IC50 [3]: 16.2 µM
32 | CC(C)c1nc2c(N)ncn(Cc3ccc4c(c3)OCO4)c-2n1 [6-amino-3(3,4-methylenedioxybenzyl)-8-isopropyl-3H-purine] | 4.1 | –
33 | CC(C)c1nc2c(N)ncn(Cc3ccc(Cl)cc3)c-2n1 [6-amino-3-(4-chlorobenzyl)-8-isopropyl-3H-purine] | 20.8 | –
34 | CCNc1ncn(Cc2ccc(OC)c(O)c2)c2nc(C(C)C)nc1-2 [6-ethylamino-3-(3-hydroxy-4-methoxybenzyl)-8-isopropyl-3H-purine] | 2.73 | –
35 | CCNc1ncn(Cc2ccc(OC)c(OCC3CCCC3)c2)c2nc(C(C)C)nc1-2 [6-Ethylamino-3-[3-cyclopentylmethoxy-4-methoxy-benzyl]-8-isopropyl-3H-purine] | 12.5 | –
36 | CCN(C(=O)c1ccccc1)c1ncn(Cc2ccc(OC)c(OC3CCCC3)c2)c2nc(C(C)C)nc1-2 [3-(3-cyclopentyloxy-4-methoxybenzyl)-6-(N-benzoyl-N-ethylamino)-8-isopropyl-3H-purine] | 1.43 | –
37 | CCn1c(=S)[nH]c(=S)c2[nH]c(C(C)C)nc21 [3-ethyl-3,7-dihydro-8-isopropyl-2,6-dithio-1H-purine-2,6-dione] | – | IC50 [3]: 4.1 µM
38 | CCCNc1nc(=S)n(CC)c2nc(C3CC3)[nH]c12 [8-cyclopropyl-3-ethyl-6-propylamino-2-thio-2H-purin-2-one] | – | IC50 [1]: 8.48 µM
39 | C=C(C)c1nc2c(N)ncn(Cc3ccc(OC)c(OC)c3)c-2n1 [6-Amino-3-(3,4-dimethyoxybenzyl)-8-(1-methylethenyl)-3H-purine] | 3.7 | –
40 | CC(C)c1nc2c(NC3CCCC3)ncn(Cc3ccc(Cl)cc3)c-2n1 [3-(4-chlorobenzyl)-6-cyclopentylamino-8-isopropyl-3H-purine] | 4.7 | –
41 | CCCn1cnc(NC2CC2)c2nc(C3CC3)nc1-2 [8-cyclopropyl-6-cyclopropylamino-3-propyl-3H-purine hydrochloride] | – | IC50 [2]: 7.9 µM
42 | COc1ccc(Cn2cnc(N)c3nc(C(C)(C)OCc4ccccc4)nc2-3)cc1OCc1ccccc1 [6-amino-3-[(3-benzyloxy-4-methoxy)benzyl]-8-[(1-benzyloxy-1-methyl)ethyl]-3H-purine] | 3.12 | –
43 | CCNc1nc(=S)n(CC2CCCCC2)c2nc(C3CC3)[nH]c12 [3-cyclohexylmethyl-8-cyclopropyl-3,7-dihydro-6-ethylamino-2-thio-2H-purin-2-one] | – | IC50 [1]: 15.2 µM
44 | C=C(C)c1nc2c(N)ncn(Cc3ccc(OC)c(OC4CCCC4)c3)c-2n1 [6-Amino-3-(3-cyclopentyloxy-4-methoxy-benzyl)-8-(1-methylethenyl)-3H-purine] | 0.091 | –
45 | CCNc1ncn(CC)c2nc(C(C)C)nc1-2 [3-ethyl-8-isopropyl-6-ethylamino-3H-purine hydrochloride] | – | IC50 [2]: 52.2 µM
